Values after ≈ are worked out from the molar mass of the structure shown.
Key:
Format in all cases: functional
Candida albicans [1] = experiment: Antifungal activity against Candida albicans 90028 ATCC assessed as inhibition of growth at 0.03 ug/ml after 48 hrs relative to control
Candida albicans [2] = experiment: Antifungal activity against Candida albicans 90028 ATCC assessed as inhibition of growth at 0.5 ug/ml after 48 hrs relative to control
Candida albicans [3] = experiment: Antifungal activity against Candida albicans 90028 ATCC assessed as inhibition of growth at 0.06 ug/ml after 48 hrs relative to control
Candida albicans [4] = experiment: Antifungal activity against Candida albicans 90028 ATCC assessed as decrease in turbidity after 48 hrs relative to control
Candida albicans [5] = experiment: Antifungal activity against Candida albicans 90028 ATCC assessed as inhibition of growth at 2 ug/ml after 48 hrs relative to control
Candida albicans [6] = experiment: Antifungal activity against Candida albicans 90028 ATCC assessed as inhibition of growth at 4 ug/ml after 48 hrs relative to control
Candida albicans [7] = experiment: Antifungal activity against Candida albicans 90028 ATCC assessed as inhibition of growth at 0.12 ug/ml after 48 hrs relative to control
Candida albicans [8] = experiment: Antifungal activity against Candida albicans 90028 ATCC assessed as inhibition of growth at 8 ug/ml after 48 hrs relative to control
Candida albicans [9] = experiment: Antifungal activity against Candida albicans 90028 ATCC assessed as inhibition of growth at 0.25 ug/ml after 48 hrs relative to control
Candida albicans [10] = experiment: Antifungal activity against Candida albicans 90028 ATCC assessed as inhibition of growth at 1 ug/ml after 48 hrs relative to control
Candida albicans [11] = experiment: Antifungal activity against Candida albicans 90028 ATCC assessed as inhibition of growth at 16 ug/ml after 48 hrs relative to control

| SMILES | MIC (Candida albicans [4]) [µg/mL] | inhibition at 0.03 µg/mL (Candida albicans [1]) [%] | inhibition at 0.5 µg/mL (Candida albicans [2]) [%] | inhibition at 0.06 µg/mL (Candida albicans [3]) [%] | inhibition at 2 µg/mL (Candida albicans [5]) [%] | inhibition at 4 µg/mL (Candida albicans [6]) [%] | inhibition at 0.12 µg/mL (Candida albicans [7]) [%] | inhibition at 8 µg/mL (Candida albicans [8]) [%] | inhibition at 0.25 µg/mL (Candida albicans [9]) [%] | inhibition at 1 µg/mL (Candida albicans [10]) [%] | inhibition at 16 µg/mL (Candida albicans [11]) [%] |
| --- | --- | --- | --- | --- | --- | --- | --- | --- | --- | --- | --- |
| CC(O)Cn1nnc(-c2ccccc2)n1 (racemic) | – | 98.8 | 98.7 | 98.8 | 98.8 | 98.9 | 98.7 | 98.9 | 98.7 | 98.8 | 98.8 |
| Cc1ccc(-c2nnn(CC(C)O)n2)cc1 (racemic) | – | 98.9 | 98.9 | 99 | 98.9 | 98.9 | 98.9 | 98.9 | 99 | 98.8 | 98.8 |
| C[C@@H]1[C@H](O)[C@@H](C)/C=C/C=C/C=C/C=C/C=C/C=C/C=C/[C@H](O[C@@H]2O[C@H](C)[C@@H](O)[C@H](N)[C@@H]2O)C[C@@H]2O[C@](O)(C[C@@H](O)C[C@@H](O)[C@H](O)CC[C@@H](O)C[C@@H](O)CC(=O)O[C@H]1C)C[C@H](O)[C@H]2C(=O)O [AMPHOTERICIN B] | – | – | 100 | – | – | – | – | – | – | – | – |

Continued, in another order:

| MIC (Candida albicans [4]) [µg/mL] | SMILES | inhibition at 0.03 µg/mL (Candida albicans [1]) [%] | inhibition at 0.5 µg/mL (Candida albicans [2]) [%] | inhibition at 0.06 µg/mL (Candida albicans [3]) [%] | inhibition at 2 µg/mL (Candida albicans [5]) [%] | inhibition at 4 µg/mL (Candida albicans [6]) [%] | inhibition at 0.12 µg/mL (Candida albicans [7]) [%] | inhibition at 8 µg/mL (Candida albicans [8]) [%] | inhibition at 0.25 µg/mL (Candida albicans [9]) [%] | inhibition at 1 µg/mL (Candida albicans [10]) [%] | inhibition at 16 µg/mL (Candida albicans [11]) [%] |
| --- | --- | --- | --- | --- | --- | --- | --- | --- | --- | --- | --- |
| 4 (≈ 17.2 µM) | Cc1ccc(-c2nnn(CCC(C)O)n2)cc1 (racemic) | 98.9 | 98.9 | 99 | 98.9 | 99 | 98.9 | 98.9 | 98.9 | 98.9 | 98.9 |
| 8 (≈ 31.7 µM) | CC(O)CCn1nnc(-c2ccccc2Cl)n1 (racemic) | 98.8 | 99 | 98.9 | 98.9 | 99 | 99 | 99 | 98.9 | 99 | 99 |
| 0.125 (≈ 0.524 µM) | CC(O)Cn1nnc(-c2ccccc2Cl)n1 (racemic) | 98.9 | 99.1 | 99 | 98.9 | 99 | 99 | 99 | 99 | 99 | 98.9 |

From ChEMBL document CHEMBL3588797, “Tetrazole activity against Candida albicans. The role of KEX2 mutations in the sensitivity to (±)-1-[5-(2-chlorophenyl)-2H-tetrazol-2-yl]propan-2-yl acetate” (Bioorg Med Chem Lett, 2015)
